Measured values: the NIST ThermoML archive (doi:10.1016/j.tca.2013.03.008)
Values joined by “and” are separate entries in the source; they are usually repeats but may differ in a detail not shown here. Equal values may be shown once. ± gives the expanded uncertainty stated by the source.

Tests used:
[1] = 101 kPa, Liquid; for viscosity: Capillary tube (Ostwald / Ubbelohde) method; for mass density: Vibrating tube method
[2] = xn = mol fraction of the nth substance listed; details: 101 kPa, Liquid; for viscosity: Capillary tube (Ostwald / Ubbelohde) method; for mass density: Vibrating tube method

| SMILES | viscosity ([1]; 298.15 K) | mass density ([1]; 298.15 K) | viscosity ([1]; 308.15 K) | mass density ([1]; 308.15 K) | viscosity ([1]; 318.15 K) | mass density ([1]; 318.15 K) | viscosity ([2]; 298.15 K, x1 = 1) | mass density ([2]; 298.15 K, x1 = 1) | viscosity ([2]; 308.15 K, x1 = 1) | mass density ([2]; 308.15 K, x1 = 1) | viscosity ([2]; 318.15 K, x1 = 1) | mass density ([2]; 318.15 K, x1 = 1) | further results |
| --- | --- | --- | --- | --- | --- | --- | --- | --- | --- | --- | --- | --- | --- |
| CCC(C)O (stereo unspecified) [butan-2-ol] | 2.998 ± 0.031 mPa·s | 802.62 ± 0.31 kg/m3 | 2.17 ± 0.025 mPa·s | 794.13 ± 0.31 kg/m3 | 1.476 ± 0.019 mPa·s | 785.22 ± 0.31 kg/m3 |  |  |  |  |  |  |  |
| CCC(C)O (stereo unspecified) [butan-2-ol] + CCC(=O)CC |  |  |  |  |  |  |  |  |  |  |  |  | viscosity ([2]; 298.15 K, x2 = 0): 2.998 ± 0.031 mPa·s; mass density ([2]; 298.15 K, x2 = 0): 802.62 ± 0.31 kg/m3; viscosity ([2]; 308.15 K, x2 = 0): 2.17 ± 0.025 mPa·s; mass density ([2]; 308.15 K, x2 = 0): 794.13 ± 0.31 kg/m3; viscosity ([2]; 318.15 K, x2 = 0): 1.476 ± 0.019 mPa·s; mass density ([2]; 318.15 K, x2 = 0): 785.22 ± 0.31 kg/m3 |
| CCC(C)O (stereo unspecified) [butan-2-ol] + CCOC(=O)CCl |  |  |  |  |  |  | 2.998 ± 0.031 mPa·s | 802.62 ± 0.31 kg/m3 | 2.17 ± 0.025 mPa·s | 794.13 ± 0.31 kg/m3 | 1.476 ± 0.019 mPa·s | 785.22 ± 0.31 kg/m3 |  |
| CCOC(=O)CCl [ethyl chloroethanoate] | 1.095 ± 0.011 mPa·s | 1144.11 ± 0.45 kg/m3 | 0.934 ± 0.009 mPa·s and 0.939 ± 0.009 mPa·s | 1131.46 ± 0.44 kg/m3 | 0.816 ± 0.008 mPa·s and 0.815 ± 0.008 mPa·s | 1118.74 ± 0.42 kg/m3 |  |  |  |  |  |  |  |
| CCC(=O)CC [pentan-3-one] | 0.442 ± 0.005 mPa·s | 809.38 ± 0.31 kg/m3 | 0.398 ± 0.004 mPa·s | 799.55 ± 0.31 kg/m3 | 0.362 ± 0.004 mPa·s | 789.63 ± 0.31 kg/m3 |  |  |  |  |  |  |  |
| CCC(=O)CC [pentan-3-one] + CCOC(=O)CCl |  |  |  |  |  |  | 0.442 ± 0.005 mPa·s | 809.38 ± 0.31 kg/m3 | 0.398 ± 0.004 mPa·s | 799.55 ± 0.31 kg/m3 | 0.362 ± 0.004 mPa·s | 789.63 ± 0.31 kg/m3 |  |
